Test results from patent US20260215423A1, “NOVEL CARBOXAMIDE AND SULFONAMIDE PESTICIDAL COMPOUNDS” (SYNGENTA CROP PROTECTION AG, priority 2023, published 2026).

What was measured:
Type in all cases: in vivo
[1] = tested on: Frankliniella occidentalis (Western Flower Thrips); assay: Frankliniella occidentalis (Western Flower Thrips) Feeding/Contact Activity, bean leaf discs; conditions: foliar, 96 h, application rate of 200 ppm, bean leaf discs sprayed, population of mixed ages, 4 days after infestation, read-out: growth inhibition
Protocol: Example B5: Frankliniella occidentalis (Western Flower Thrips) Feeding/Contact Activity Bean leaf discs were placed on agar in 24-well microtiter plates and sprayed with aqueous test solutions prepared from […] stock solutions. After drying the leaf discs were infested with a Frankliniella population of mixed ages. The samples were assessed for mortality 4 days after infestation.

[2] = tested on: Myzus persicae (Green Peach Aphid); assay: Myzus persicae (Green Peach Aphid) Feeding/Contact Activity, eggplant leaf discs; conditions: foliar, 144 h, application rate of 200 ppm, eggplant leaf discs sprayed, aphid population of mixed ages, 6 days after infestation, read-out: growth inhibition
Description: Example B8: Myzus persicae (Green Peach Aphid) Feeding/Contact Activity Eggplant leaf discs were placed onto agar in a 24-well microtiter plate and sprayed with aqueous test solutions prepared from 10′000 ppm DMSO stock solutions. After drying, the leaf discs were infested with an aphid population of mixed ages. […]

[3] = tested on: Diabrotica balteata (Corn root worm); assay: Diabrotica balteata (Corn root worm); conditions: 96 h, application rate of 200 ppm, maize sprouts sprayed, L2 larvae, 4 days after infestation, read-out: effect in at least one of the two categories (mortality or growth inhibition)
Protocol: Example B2: Diabrotica balteata (Corn root worm)
Maize sprouts placed onto an agar layer in 24-well microtiter plates were treated with aqueous test solutions prepared from 10′000 ppm DMSO stock solutions by spraying. After drying, the plates were infested with L2 larvae (6 to 10 per well). The samples were assessed for mortality and growth inhibition in comparison to untreated samples 4 days after infestation.

[4] = tested on: Myzus persicae (Green Peach Aphid); assay: Myzus persicae (Green Peach Aphid). Intrinsic Activity; conditions: 120 h, test rate of 12 ppm, mixed with sucrose solution, feeding through Parafilm, 5 days after infestation
Description: Example B7: Myzus persicae (Green Peach Aphid). Intrinsic Activity
Test compounds prepared from 10′000 ppm DMSO stock solutions were applied by pipette into 24-well microtiter plates and mixed with sucrose solution. The plates were closed with a stretched Parafilm. A plastic stencil with 24 holes was placed onto the plate and infested pea seedlings were placed directly on the Parafilm. The infested plate was closed with a gel blotting paper and another plastic stencil and then turned upside down. The samples were assessed for mortality 5 days after infestation.

[5] = tested on: Spodoptera littoralis (Egyptian Cotton Leaf Worm); assay: Spodoptera littoralis (Egyptian Cotton Leaf Worm); conditions: foliar, 72 h, application rate of 200 ppm, cotton leaf discs sprayed, five L1 larvae, 3 days after infestation, read-out: control (mortality, anti-feeding effect, growth inhibition)
Protocol: Example B10: Spodoptera littoralis (Egyptian Cotton Leaf Worm)
Cotton leaf discs were placed onto agar in 24-well microtiter plates and sprayed with aqueous test solutions prepared from 10′000 ppm DMSO stock solutions. After drying the leaf discs were infested with five L1 larvae. The samples were assessed for mortality, anti-feeding effect, and growth inhibition in comparison to untreated samples 3 days after infestation. Control of Spodoptera littoralis by a test sample is given when at least one of the categories mortality, anti-feedant effect, and growth inhibition is higher than the untreated sample.

[6] = tested on: Tetranychus urticae (Two-Spotted Spider Mite); assay: Tetranychus urticae (Two-Spotted Spider Mite): Feeding/Contact Activity; conditions: foliar, 192 h, application rate of 200 ppm, bean leaf discs sprayed, mite population of mixed ages (mobile stages), 8 days after infestation
Protocol: Example B11: Tetranychus urticae (Two-Spotted Spider Mite):Feeding/Contact Activity
Bean leaf discs on agar in 24-well microtiter plates were sprayed with aqueous test solutions prepared from 10,000 ppm DMSO stock solutions. After drying the leaf discs were infested with a mite population of mixed ages. The samples were assessed for mortality on mixed population (mobile stages) 8 days after infestation.

[7] = tested on: Euschistus heros (Neotropical Brown Stink Bug); assay: Euschistus heros (Neotropical Brown Stink Bug); conditions: 120 h, application rate of 200 ppm, soybean leaves sprayed, N2 nymphs, 5 days after infestation, read-out: effect in at least one of the two categories (mortality or growth inhibition)
Protocol: Example B3: Euschistus heros (Neotropical Brown Stink Bug)
Soybean leaves on agar in 24-well microtiter plates were sprayed with aqueous test solutions prepared from 10′000 ppm DMSO stock solutions. After drying the leaves were infested with N2 nymphs. The samples were assessed for mortality and growth inhibition in comparison to untreated samples 5 days after infestation.

[8] = tested on: Plutella xylostella (Diamond back moth); assay: Plutella xylostella (Diamond back moth); conditions: 192 h, application rate of 200 ppm, artificial diet treated by pipetting, Plutella eggs, 8 days after infestation, read-out: effect in at least one of the two categories (mortality or growth inhibition)
Protocol: After drying, Plutella eggs were pipetted through a plastic stencil onto a gel blotting paper and the plate was closed with it. The samples were assessed for mortality and growth inhibition in comparison to untreated samples 8 days after infestation.

[9] = tested on: Frankliniella occidentalis (Western Flower Thrips); assay: Frankliniella occidentalis (Western Flower Thrips): Feeding/Contact Activity, sunflower leaf discs; conditions: foliar, 168 h, application rate of 200 ppm, sunflower leaf discs sprayed, population of mixed ages, 7 days after infestation
Protocol: Example B4: Frankliniella occidentalis (Western Flower Thrips):Feeding/Contact Activity
Sunflower leaf discs were placed on agar in 24-well microtiter plates and sprayed with aqueous test solutions prepared from […] stock solutions. After drying the leaf discs were infested with a Frankliniella population of mixed ages. The samples were assessed for mortality 7 days after infestation.

[10] = tested on: Myzus persicae (Green Peach Aphid); assay: Myzus persicae (Green Peach Aphid): Feeding/Contact Activity, sunflower leaf discs; conditions: foliar, 144 h, application rate of 200 ppm, sunflower leaf discs sprayed, aphid population of mixed ages, 6 days after infestation
Protocol: Example B6: Myzus persicae (Green Peach Aphid):Feeding/Contact Activity
Sunflower leaf discs were placed onto agar in a 24-well microtiter plate and sprayed with aqueous test solutions prepared from 10′000 ppm DMSO stock solutions. After drying, the leaf discs were infested with an aphid population of mixed ages. The samples were assessed for mortality 6 days after infestation.

[11] = tested on: Bemisia tabaci (Cotton White Fly); assay: Bemisia tabaci (Cotton White Fly): Feeding/Contact Activity; conditions: foliar, 144 h, application rate of 200 ppm, cotton leaf discs sprayed, adult white flies, 6 days after incubation
Protocol: Example B1: Bemisia tabaci (Cotton White Fly): Feeding/Contact Activity
Cotton leaf discs were placed on agar in 24-well microtiter plates and sprayed with aqueous test solutions prepared from 10′000 ppm DMSO stock solutions. After drying the leaf discs were infested with adult white flies. The samples were checked for mortality 6 days after incubation.

CCC(=O)NCc1cc(OC[C@H](C)N(C(=O)CC)S(=O)(=O)C(F)(F)F)ccc1Cl [P-18, N-[[2-chloro-5-[(2S)-2-[propanoyl(trifluoro-methylsulfonyl)amino]propoxy]phenyl]methyl] propanamide]
≥ 80%: inhibition at 200 ppm [1] | inhibition at 200 ppm [2] | percent effect (mortality or growth inhibition) at 200 ppm [3] | mortality at 12 ppm [4] | mortality at 200 ppm [5] | mortality at 200 ppm [6] | percent effect (mortality or growth inhibition) at 200 ppm [7] | percent effect (mortality or growth inhibition) at 200 ppm [8]

CCC(=O)NCc1cc(OC[C@H](C)N(COC)S(=O)(=O)C(F)(F)F)ccc1Cl [P-3, N-[[2-chloro-5-[(2S)-2-[methoxymethyl(tri-fluoromethylsulfonyl)-amino]propoxy]phenyl]methyl]propanamide]
≥ 80%: inhibition at 200 ppm [2] | percent effect (mortality or growth inhibition) at 200 ppm [3] | mortality at 12 ppm [4] | mortality at 200 ppm [9] | mortality at 200 ppm [10] | mortality at 200 ppm [6] | percent effect (mortality or growth inhibition) at 200 ppm [7] | mortality at 200 ppm [11] | percent effect (mortality or growth inhibition) at 200 ppm [8]

CCC(=O)NCc1cc(OC[C@H](C)NS(=O)(=O)C(F)(F)F)ccc1Cl [P-4]
≥ 80%: inhibition at 200 ppm [2] | percent effect (mortality or growth inhibition) at 200 ppm [3] | mortality at 12 ppm [4] | mortality at 200 ppm [9] | mortality at 200 ppm [10] | mortality at 200 ppm [6] | percent effect (mortality or growth inhibition) at 200 ppm [7] | percent effect (mortality or growth inhibition) at 200 ppm [8]
